Columns and labels:
[1] = target: T1, Tyrosine-protein phosphatase non-receptor type 11 (Homo sapiens, UniProt Q06124); assay: Inhibition of H2N-LN(pY)IDLDLV-(dPEG80) LST(pY)-ASINFQK-amide-activated SHP2 (unknown origin) using DiFMUP as substrate incubated for 30 mins by fluorescence based assay
T1 sequence (Q06124 whole entry): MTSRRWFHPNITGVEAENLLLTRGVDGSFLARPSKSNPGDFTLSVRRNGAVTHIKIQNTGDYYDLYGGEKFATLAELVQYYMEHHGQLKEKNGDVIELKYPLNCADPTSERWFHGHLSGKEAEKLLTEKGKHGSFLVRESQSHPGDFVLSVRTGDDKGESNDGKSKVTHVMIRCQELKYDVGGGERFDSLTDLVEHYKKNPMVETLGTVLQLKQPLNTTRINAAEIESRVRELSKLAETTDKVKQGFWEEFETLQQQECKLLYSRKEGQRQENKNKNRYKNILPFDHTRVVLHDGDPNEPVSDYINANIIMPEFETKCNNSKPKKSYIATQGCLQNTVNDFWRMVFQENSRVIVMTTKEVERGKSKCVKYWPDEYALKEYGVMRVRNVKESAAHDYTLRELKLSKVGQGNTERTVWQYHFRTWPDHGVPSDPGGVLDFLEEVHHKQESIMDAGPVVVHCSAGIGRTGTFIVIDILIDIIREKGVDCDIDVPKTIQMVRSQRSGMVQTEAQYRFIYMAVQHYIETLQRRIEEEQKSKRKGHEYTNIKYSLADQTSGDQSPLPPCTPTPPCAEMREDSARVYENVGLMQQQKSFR

KYSE-520 cell line = assay: cells; conditions: Homo sapiens, KYSE-520, 72 h
Description: Antiproliferative activity against human KYSE520 cells measured after 72 hrs by Cell Titer-Glo assay

[2] = Inhibition of ERK phosphorylation in human KYSE520 cells incubated for 2 hrs by fluorescence based assay; assay type: cell-based; conditions: KYSE-520, 2 h
[3] = Toxicity in NU/NU mouse implanted with human KYSE520 cells assessed as abnormalities in animal at 25 mg/kg, po treated for 20 days; assay type: organism-based; conditions: in vivo, 480 h, time 20 day
[4] = Toxicity in NU/NU mouse implanted with human KYSE520 cells assessed as body weight loss at 25 mg/kg, po treated for 20 days; assay type: organism-based; conditions: in vivo, 480 h, time 20 day
[5] = Toxicity in NU/NU mouse implanted with human KYSE520 cells assessed as abnormalities in liver at 25 mg/kg, po treated for 20 days by H and E staining based analysis; assay type: organism-based; conditions: in vivo, 480 h, time 20 day
[6] = Toxicity in NU/NU mouse implanted with human KYSE520 cells assessed as abnormalities in kidney at 25 mg/kg, po treated for 20 days by H and E staining based analysis; assay type: organism-based; conditions: in vivo, 480 h, time 20 day
[7] = Toxicity in NU/NU mouse implanted with human KYSE520 cells assessed as drug tolerance at 25 mg/kg, po treated for 20 days; assay type: organism-based; conditions: in vivo, 480 h, time 20 day
[8] = Toxicity in NU/NU mouse implanted with human KYSE520 cells assessed as abnormalities in lung at 25 mg/kg, po treated for 20 days by H and E staining based analysis; assay type: organism-based; conditions: in vivo, 480 h, time 20 day
[9] = Toxicity in NU/NU mouse implanted with human KYSE520 cells assessed as abnormalities in spleen at 25 mg/kg, po treated for 20 days by H and E staining based analysis; assay type: organism-based; conditions: in vivo, 480 h, time 20 day
[10] = Toxicity in NU/NU mouse implanted with human KYSE520 cells assessed as abnormalities in heart at 25 mg/kg, po treated for 20 days by H and E staining based analysis; assay type: organism-based; conditions: in vivo, 480 h, time 20 day

SMILES	IC50 [1] [nM]	IC50 (KYSE-520 cell line) [nM]	IC50 [2] [nM]	also measured
NC1COCC12CCN(c1nc3ccc(Sc4ccnc5c4OC[C@@H]4CCCN54)cc3s1)CC2 (some centres undefined)	837			
C[C@@H]1OCC2(CCN(c3cnc(Sc4ccnc(N)c4Cl)c(N)n3)CC2)[C@@H]1N [BATOPROTAFIB]		241	49	Activity [3]: Non-toxic; Activity [4]: Non-toxic; Activity [5]: Non-toxic; Activity [6]: Non-toxic; Activity [7]: Non-toxic; Activity [8]: Non-toxic; Activity [9]: Non-toxic; Activity [10]: Non-toxic
NC1COCC12CCN(c1nc3ccc(Sc4ccnc5c4OC[C@@H]4CCCN54)nc3s1)CC2 (some centres undefined)	434			
Nc1nccc(Sc2ccc3nc(N4CC5CC(C4)N5)sc3n2)c1Cl	623			

More lines, in order of falling IC50 [1], values ahead:

IC50 [1] [nM]	IC50 (KYSE-520 cell line) [nM]	IC50 [2] [nM]	SMILES	also measured
372			Nc1cccc(Sc2ccc3nc(N4CCCC(N)CC4)sc3n2)c1Cl (centres undefined)	
82.7	> 10000	> 10000	CCC1C(O)=C(C(=O)Nc2cccc(Sc3ccc4nc(N5CCC(C)(N)CC5)sc4n3)c2Cl)C(=O)N1C (centres undefined)	
78.9			NC1COCC12CCN(c1ncc(Sc3ccnc4c3OC[C@@H]3CCCN43)c3nncn13)CC2 (some centres undefined)	
70.2	9250	2150	NC1COCC12CCN(c1nc3ccc(Sc4cccc(NC(=O)C5=C(O)CN(c6ccccc6)C5=O)c4Cl)nc3s1)CC2 (centres undefined)	
68.1	1200	175	NC1COCC12CCN(c1nc3ccc(Sc4cccc(NC(=O)c5c(O)nc6ccccn6c5=O)c4Cl)nc3s1)CC2 (centres undefined)	

From ChEMBL document CHEMBL6103636, “Development of Potent SHP2 Allosteric Inhibitors: Design, Synthesis, and Evaluation with Antitumor Effects” (J Med Chem, 2025)
